Results from patent US9708314B2, “Heterocyclic amide compound” (NISSAN CHEMICAL INDUSTRIES, LTD., priority 2013, dated 2017).

Key:
Assay type in all cases: in vivo
Avena fatua = experiment: Test Example 4: herbicidal effect by application to foliage (diluvial soil, plastic box); details: Application herbicide amount 320 g/ha; foliage application
Summary of the method: (§1)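 Seeds sown in sterilized diluvial soil, covered ~1.5 cm, grown 14 days in greenhouse at 25° C. to 30° C. Emulsion formulation diluted in water to set rate (g/ha) and sprayed onto stems and leaves. Effect scored visually 3 weeks later on 0–5 scale (5 = ≥90% herbicidal ratio, 0 = ≤5%).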

[1] = system: Echinochloa crus-galli var. crus-galli; experiment: as above; details: Application herbicide amount 320 g/ha; foliage application
Summary of the method: as §1

Apera spica-venti. = experiment: as above; details: Application herbicide amount 320 g/ha; foliage application
Summary of the method: as §1

Digitaria ciliaris = experiment: as above; details: Application herbicide amount 320 g/ha; foliage application
Summary of the method: as §1

Lolium multiflorum Lam. = experiment: as above; details: Application herbicide amount 320 g/ha; foliage application
Summary of the method: as §1

Chenopodium album = experiment: as above; details: Application herbicide amount 320 g/ha; foliage application
Summary of the method: as §1

Amaranthus retroflexus = experiment: as above; details: Application herbicide amount 320 g/ha; foliage application
Summary of the method: as §1

Galium spurium = experiment: as above; details: Application herbicide amount 320 g/ha; foliage application
Summary of the method: as §1

Alopecurus myosuroides = experiment: as above; details: Application herbicide amount 320 g/ha; foliage application
Summary of the method: as §1

Stellaria media = experiment: as above; details: Application herbicide amount 320 g/ha; foliage application
Summary of the method: as §1

Setaria viridis = experiment: as above; details: Application herbicide amount 320 g/ha; foliage application
Summary of the method: as §1

Abutilon theophrasti = experiment: as above; details: Application herbicide amount 320 g/ha; foliage application
Summary of the method: as §1

Veronica persica = experiment: as above; details: Application herbicide amount 320 g/ha; foliage application
Summary of the method: as §1

[2] = system: transplanted Oryza sativa; experiment: Test Example 1: effect on crop, application before weed generation in submerged conditions; details: Application herbicide amount 320 g/ha; Seventeenth Table
Summary of the method: (§2)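 Pre-emergence water-surface application under 4 cm flooding, same day as sowing, with rice transplanted at 2.5 leaf stage. Dose given as g/ha. Plants grown at 25° C. to 30° C. and rated three weeks later on a 0 (≤5%) to 5 (≥90%) herbicidal-ratio scale.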

[3] = system: Beta vulgaris ssp. vulgaris; experiment: Test Example 4: effect on crop by application to foliage (diluvial soil, plastic box); details: Application herbicide amount 320 g/ha; foliage application
Summary of the method: as §1

Zea mays = experiment: as above; details: Application herbicide amount 320 g/ha; foliage application
Summary of the method: as §1

Glycine max = experiment: as above; details: Application herbicide amount 320 g/ha; foliage application
Summary of the method: as §1

Brassica campestris L. = experiment: as above; details: Application herbicide amount 320 g/ha; foliage application
Summary of the method: as §1

Triticum aestivum = experiment: as above; details: Application herbicide amount 320 g/ha; foliage application
Summary of the method: as §1

[4] = system: directly sowed Oryza sativa; experiment: as above; details: Application herbicide amount 320 g/ha; foliage application
Summary of the method: as §1

[5] = system: Echinochloa oryzacola Vasing.; experiment: Test Example 1: herbicidal activity, application before weed generation in submerged conditions; details: Application herbicide amount 320 g/ha; Seventeenth Table
Summary of the method: as §2

Scirpus juncoides = experiment: as above; details: Application herbicide amount 320 g/ha; Seventeenth Table
Summary of the method: as §2

Monochoria vaginalis = experiment: as above; details: Application herbicide amount 320 g/ha; Seventeenth Table
Summary of the method: as §2

CCC(CC)c1nnc2c(C(=O)Nc3nnco3)ccc(C(F)(F)F)n12 [1-145]
I (Avena fatua) herbicidal effect grade (Avena fatua): 3 (Herbicidal ratio of 40% or more and less than 70%)
H (Echinochloa crus-galli var. crus-galli) herbicidal effect grade [1]: 5 (Herbicidal ratio of 90% or more (almost completely withered))
L (Apera spica-venti.) herbicidal effect grade (Apera spica-venti.): 3 (Herbicidal ratio of 40% or more and less than 70%)
F (Digitaria ciliaris) herbicidal effect grade (Digitaria ciliaris): 5 (Herbicidal ratio of 90% or more (almost completely withered))
K (Lolium multiflorum Lam.) herbicidal effect grade (Lolium multiflorum Lam.): 2 (Herbicidal ratio of 20% or more and less than 40%)
O (Chenopodium album) herbicidal effect grade (Chenopodium album): 5 (Herbicidal ratio of 90% or more (almost completely withered))
N (Amaranthus retroflexus) herbicidal effect grade (Amaranthus retroflexus): 4 (Herbicidal ratio of 70% or more and less than 90%)
Q (Galium spurium) herbicidal effect grade (Galium spurium): 1 (Herbicidal ratio of 5% or more and less than 20%)
J (Alopecurus myosuroides) herbicidal effect grade (Alopecurus myosuroides): 1 (Herbicidal ratio of 5% or more and less than 20%)
P (Stellaria media) herbicidal effect grade (Stellaria media): 5 (Herbicidal ratio of 90% or more (almost completely withered))
G (Setaria viridis) herbicidal effect grade (Setaria viridis): 4 (Herbicidal ratio of 70% or more and less than 90%)
M (Abutilon theophrasti) herbicidal effect grade (Abutilon theophrasti): 3 (Herbicidal ratio of 40% or more and less than 70%)
R (Veronica persica) herbicidal effect grade (Veronica persica): 5 (Herbicidal ratio of 90% or more (almost completely withered))
a: transplanted Oryza sativa (effect on crop grade) [2]: 4 (Herbicidal ratio of 70% or more and less than 90%)
f (Beta vulgaris ssp. vulgaris) effect on crop grade [3]: 5 (Herbicidal ratio of 90% or more (almost completely withered))
c (Zea mays) effect on crop grade (Zea mays): 0 (Herbicidal ratio of 5% or less (almost no effect))
d (Glycine max) effect on crop grade (Glycine max): 3 (Herbicidal ratio of 40% or more and less than 70%)
g (Brassica campestris L.) effect on crop grade (Brassica campestris L.): 3 (Herbicidal ratio of 40% or more and less than 70%)
e (Triticum aestivum) effect on crop grade (Triticum aestivum): 2 (Herbicidal ratio of 20% or more and less than 40%)
b (directly sowed Oryza sativa) effect on crop grade [4]: 3 (Herbicidal ratio of 40% or more and less than 70%)
A: Echinochloa oryzicola Vasing. (herbicidal effect grade) [5]: 5 (Herbicidal ratio of 90% or more (almost completely withered))
B: Scirpus juncoides (herbicidal effect grade) (Scirpus juncoides): 5 (Herbicidal ratio of 90% or more (almost completely withered))
C: Monochoria vaginalis (herbicidal effect grade) (Monochoria vaginalis): 5 (Herbicidal ratio of 90% or more (almost completely withered))

CSCc1nnc2c(C(=O)Nc3nnco3)ccc(C(F)(F)F)n12 [1-146]
I (Avena fatua) herbicidal effect grade (Avena fatua): 4 (Herbicidal ratio of 70% or more and less than 90%)
H (Echinochloa crus-galli var. crus-galli) herbicidal effect grade [1]: 5 (Herbicidal ratio of 90% or more (almost completely withered))
L (Apera spica-venti.) herbicidal effect grade (Apera spica-venti.): 4 (Herbicidal ratio of 70% or more and less than 90%)
F (Digitaria ciliaris) herbicidal effect grade (Digitaria ciliaris): 5 (Herbicidal ratio of 90% or more (almost completely withered))
K (Lolium multiflorum Lam.) herbicidal effect grade (Lolium multiflorum Lam.): 4 (Herbicidal ratio of 70% or more and less than 90%)
O (Chenopodium album) herbicidal effect grade (Chenopodium album): 5 (Herbicidal ratio of 90% or more (almost completely withered))
N (Amaranthus retroflexus) herbicidal effect grade (Amaranthus retroflexus): 5 (Herbicidal ratio of 90% or more (almost completely withered))
Q (Galium spurium) herbicidal effect grade (Galium spurium): 5 (Herbicidal ratio of 90% or more (almost completely withered))
J (Alopecurus myosuroides) herbicidal effect grade (Alopecurus myosuroides): 2 (Herbicidal ratio of 20% or more and less than 40%)
P (Stellaria media) herbicidal effect grade (Stellaria media): 5 (Herbicidal ratio of 90% or more (almost completely withered))
G (Setaria viridis) herbicidal effect grade (Setaria viridis): 5 (Herbicidal ratio of 90% or more (almost completely withered))
M (Abutilon theophrasti) herbicidal effect grade (Abutilon theophrasti): 4 (Herbicidal ratio of 70% or more and less than 90%)
R (Veronica persica) herbicidal effect grade (Veronica persica): 5 (Herbicidal ratio of 90% or more (almost completely withered))
a: transplanted Oryza sativa (effect on crop grade) [2]: 3 (Herbicidal ratio of 40% or more and less than 70%)
f (Beta vulgaris ssp. vulgaris) effect on crop grade [3]: 5 (Herbicidal ratio of 90% or more (almost completely withered))
c (Zea mays) effect on crop grade (Zea mays): 0 (Herbicidal ratio of 5% or less (almost no effect))
d (Glycine max) effect on crop grade (Glycine max): 5 (Herbicidal ratio of 90% or more (almost completely withered))
g (Brassica campestris L.) effect on crop grade (Brassica campestris L.): 5 (Herbicidal ratio of 90% or more (almost completely withered))
e (Triticum aestivum) effect on crop grade (Triticum aestivum): 3 (Herbicidal ratio of 40% or more and less than 70%)
b (directly sowed Oryza sativa) effect on crop grade [4]: 5 (Herbicidal ratio of 90% or more (almost completely withered))
A: Echinochloa oryzicola Vasing. (herbicidal effect grade) [5]: 5 (Herbicidal ratio of 90% or more (almost completely withered))
B: Scirpus juncoides (herbicidal effect grade) (Scirpus juncoides): 5 (Herbicidal ratio of 90% or more (almost completely withered))
C: Monochoria vaginalis (herbicidal effect grade) (Monochoria vaginalis): 5 (Herbicidal ratio of 90% or more (almost completely withered))

O=C(Nc1nnco1)c1ccc(C(F)(F)F)n2c(-c3ccc(F)cc3)nnc12 [1-147]
I (Avena fatua) herbicidal effect grade (Avena fatua): 3 (Herbicidal ratio of 40% or more and less than 70%)
H (Echinochloa crus-galli var. crus-galli) herbicidal effect grade [1]: 4 (Herbicidal ratio of 70% or more and less than 90%)
L (Apera spica-venti.) herbicidal effect grade (Apera spica-venti.): 3 (Herbicidal ratio of 40% or more and less than 70%)
F (Digitaria ciliaris) herbicidal effect grade (Digitaria ciliaris): 4 (Herbicidal ratio of 70% or more and less than 90%)
K (Lolium multiflorum Lam.) herbicidal effect grade (Lolium multiflorum Lam.): 3 (Herbicidal ratio of 40% or more and less than 70%)
O (Chenopodium album) herbicidal effect grade (Chenopodium album): 5 (Herbicidal ratio of 90% or more (almost completely withered))
N (Amaranthus retroflexus) herbicidal effect grade (Amaranthus retroflexus): 4 (Herbicidal ratio of 70% or more and less than 90%)
Q (Galium spurium) herbicidal effect grade (Galium spurium): 3 (Herbicidal ratio of 40% or more and less than 70%)
J (Alopecurus myosuroides) herbicidal effect grade (Alopecurus myosuroides): 2 (Herbicidal ratio of 20% or more and less than 40%)
P (Stellaria media) herbicidal effect grade (Stellaria media): 5 (Herbicidal ratio of 90% or more (almost completely withered))
G (Setaria viridis) herbicidal effect grade (Setaria viridis): 3 (Herbicidal ratio of 40% or more and less than 70%)
M (Abutilon theophrasti) herbicidal effect grade (Abutilon theophrasti): 3 (Herbicidal ratio of 40% or more and less than 70%)
R (Veronica persica) herbicidal effect grade (Veronica persica): 5 (Herbicidal ratio of 90% or more (almost completely withered))
a: transplanted Oryza sativa (effect on crop grade) [2]: 2 (Herbicidal ratio of 20% or more and less than 40%)
f (Beta vulgaris ssp. vulgaris) effect on crop grade [3]: 5 (Herbicidal ratio of 90% or more (almost completely withered))
c (Zea mays) effect on crop grade (Zea mays): 0 (Herbicidal ratio of 5% or less (almost no effect))
d (Glycine max) effect on crop grade (Glycine max): 3 (Herbicidal ratio of 40% or more and less than 70%)
g (Brassica campestris L.) effect on crop grade (Brassica campestris L.): 5 (Herbicidal ratio of 90% or more (almost completely withered))
e (Triticum aestivum) effect on crop grade (Triticum aestivum): 3 (Herbicidal ratio of 40% or more and less than 70%)
b (directly sowed Oryza sativa) effect on crop grade [4]: 0 (Herbicidal ratio of 5% or less (almost no effect))
A: Echinochloa oryzicola Vasing. (herbicidal effect grade) [5]: 5 (Herbicidal ratio of 90% or more (almost completely withered))
B: Scirpus juncoides (herbicidal effect grade) (Scirpus juncoides): 5 (Herbicidal ratio of 90% or more (almost completely withered))
C: Monochoria vaginalis (herbicidal effect grade) (Monochoria vaginalis): 5 (Herbicidal ratio of 90% or more (almost completely withered))
